Data taken from PubChem BioAssay AID256 (DTP/NCI, 2004).
Toxic doses and inconclusive results are not listed. The calls were made as follows: active = survival T/C of 150% or more; inactive = T/C below 125% in these data.

Test system: CD2F1 mice, L1210 leukemia ip, survival T/C
Assay: NCI In Vivo Anticancer Drug Screen. Data for tumor model L1210 Leukemia (intraperitoneal) in CD2F1 (CDF1) mice
Settings: higher = longer survival
Outline: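 In this screen, transplantable tumors were grown in mice given either the compound or its vehicle. Results were expressed as the treated measurement relative to the control measurement.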

[1] = endpoint: mean survival time, dose: 12.5 mg/kg/injection, schedule: Q01DX009 (ip), vehicle: Klucel (hydroxypropylcellulose) (HPC)
[2] = endpoint: mean survival time, dose: 25.0 mg/kg/injection, schedule: Q01DX009 (ip), vehicle: Klucel (hydroxypropylcellulose) (HPC)
[3] = endpoint: mean survival time, dose: 50.0 mg/kg/injection, schedule: Q01DX009 (ip), vehicle: Klucel (hydroxypropylcellulose) (HPC)
[4] = endpoint: mean survival time, dose: 100.0 mg/kg/injection, schedule: Q01DX009 (ip), vehicle: Klucel (hydroxypropylcellulose) (HPC)
[5] = endpoint: mean survival time, dose: 200.0 mg/kg/injection, schedule: Q01DX009 (ip), vehicle: Klucel (hydroxypropylcellulose) (HPC)
[6] = endpoint: mean survival time, dose: 400.0 mg/kg/injection, schedule: Q01DX009 (ip), vehicle: Klucel (hydroxypropylcellulose) (HPC)
[7] = endpoint: mean survival time, dose: 100.0 mg/kg/injection, schedule: Q04DX003 (ip), vehicle: saline with Tween-80
[8] = endpoint: mean survival time, dose: 200.0 mg/kg/injection, schedule: Q04DX003 (ip), vehicle: saline with Tween-80
[9] = endpoint: mean survival time, dose: 400.0 mg/kg/injection, schedule: Q04DX003 (ip), vehicle: saline with Tween-80

Measured: T/C

COc1ccc2c(c1OC(C)=O)-c1cc(O)cc3c1C(C2)N(C(=O)CN(CCCl)CCCl)CC3 (stereo unspecified)
inactive: endpoint: mean survival time, dose: 6.25 mg/kg/injection, schedule: Q04DX003 (ip), vehicle: DMSO 98 % of control | endpoint: mean survival time, dose: 12.5 mg/kg/injection, schedule: Q04DX003 (ip), vehicle: DMSO 91 % of control | endpoint: mean survival time, dose: 25.0 mg/kg/injection, schedule: Q04DX003 (ip), vehicle: DMSO 100 % of control | endpoint: mean survival time, dose: 50.0 mg/kg/injection, schedule: Q04DX003 (ip), vehicle: DMSO 102 % of control

Cc1ccc(S(=O)(=O)N2CCn3ncc(C#N)c32)cc1
inactive: [1] 98 % of control | [2] 95 % of control | [3] 97 % of control | [4] 87 % of control | [5] 89 % of control | [6] 95 % of control

CN1CC[C@]23c4c5ccc(O)c4O[C@H]2C(=O)CC[C@H]3[C@H]1C5
inactive: endpoint: mean survival time, dose: 12.5 mg/kg/injection, schedule: Q01DX009 (ip), vehicle: saline 95 % of control | endpoint: mean survival time, dose: 25.0 mg/kg/injection, schedule: Q01DX009 (ip), vehicle: saline 102 % of control | endpoint: mean survival time, dose: 50.0 mg/kg/injection, schedule: Q01DX009 (ip), vehicle: saline 93 % of control

O=c1[nH]c(-c2ccccc2)nc(-c2ccccc2)c1Cc1cc2c(cc1O)OCC2
inactive: endpoint: mean survival time, dose: 100.0 mg/kg/injection, schedule: Q01DX001 (ip), vehicle: saline 103 % of control | endpoint: mean survival time, dose: 200.0 mg/kg/injection, schedule: Q01DX001 (ip), vehicle: saline 92 % of control | endpoint: mean survival time, dose: 400.0 mg/kg/injection, schedule: Q01DX001 (ip), vehicle: saline 92 % of control

CCC(C)(O)Cc1cnccn1 (stereo unspecified)
inactive: endpoint: mean survival time, dose: 100.0 mg/kg/injection, schedule: Q01DX009 (ip), vehicle: saline 108 % of control | endpoint: mean survival time, dose: 200.0 mg/kg/injection, schedule: Q01DX009 (ip), vehicle: saline 97 % of control | endpoint: mean survival time, dose: 400.0 mg/kg/injection, schedule: Q01DX009 (ip), vehicle: saline 96 % of control

O=S(=O)(NN=C(c1ccccc1)c1ccccc1)c1ccccc1
inactive: [1] 96 % of control | [2] 100 % of control | [3] 92 % of control | [4] 94 % of control | [5] 92 % of control | [6] 92 % of control

CC(Br)C(=O)OCc1ccccc1 (stereo unspecified)
inactive: [7] 95 % of control | [8] 95 % of control | [9] 95 % of control

O=C1c2ccccc2C(=O)N1CBr
inactive: endpoint: mean survival time, dose: 12.5 mg/kg/injection, schedule: Q01DX009 (ip), vehicle: saline with Tween-80 100 % of control | endpoint: mean survival time, dose: 25.0 mg/kg/injection, schedule: Q01DX009 (ip), vehicle: saline with Tween-80 97 % of control | endpoint: mean survival time, dose: 50.0 mg/kg/injection, schedule: Q01DX009 (ip), vehicle: saline with Tween-80 98 % of control

c1ccc2[nH]c(CN(CCN(Cc3nc4ccccc4[nH]3)Cc3nc4ccccc4[nH]3)Cc3nc4ccccc4[nH]3)nc2c1
inactive: endpoint: median survival time, dose: 3.12 mg/kg/injection, schedule: Q01DX005 (ip), vehicle: DMSO 100 % of control | endpoint: median survival time, dose: 6.25 mg/kg/injection, schedule: Q01DX005 (ip), vehicle: DMSO 100 % of control

CC1(C)CC(O)(Cc2ccccc2)C(O)c2ccccc21 (stereo unspecified)
inactive: [7] 93 % of control | [8] 97 % of control | [9] 93 % of control
